“Also recorded” adds a separate entry of the source. Ends that are not written are not given here.
Experiments:
[1] = test system: T cells; assay: in vitro T cell proliferation in response to stimulation with anti-CD3 antibodies, with or without exogenous VIP; type: cell-based; settings: for reversal / block of the suppressive effect of exogenous VIP on T cell proliferation: exogenous VIP peptide added
Protocol: Whether VIPhyb treatment would enhance T cell activation and cytotoxicity in response to melanoma, which can be highly immunogenic, was tested.
The anticancer activity of treatment with VIPhyb appears to be T cell mediated.

[2] = test system: B16F1 cells; assay: B16F1 melanoma syngeneic model in B6 Albino mice, VIPhyb alone; type: in vivo, mouse
Protocol: To investigate VIPhyb as an immunotherapy for melanoma, and to determine the best route of administration, Luciferase-expression B16F1 cells were injected into B6 Albino syngeneic recipients and given 10 μg of VIPhyb peritumorally or subcutaneously on the contralateral flank beginning 1 day before tumor inoculation and continuing daily until the experimental endpoint.
Whether VIPhyb has an effect on adaptive immunity was testes. Mice with tumors that exceeded 500 mm^3 in volume were euthanized and their splenocytes phenotyped using flow cytometry. Blood was also collected for a complete blood count (CBC) to determine amount of peripheral white blood cells (WBCs). Of particular interest was the expansion of CD8+ T cells to corroborate the in vitro data, and expression of the inhibitory molecule PD-1.

[3] = test system: luciferase expressing splenocytes from B6 mice; assay: splenocyte co-culture with irradiated B16F1 and B16F10 cells, proliferation by BLI; type: cell-based, mouse; settings: co-culture with irradiated B16 cells, anti-CD3 pre-coated plates, low-dose IL-2, 3 days
Protocol: Splenocytes isolated from 3 naïve luciferase+ B6 mouse were cultured with irradiated B16 cells and with or without VIPhyb in triplicate, and proliferation measured with BLI.
Whether combination of a VIPhyb with a PD-1 inhibitor could enhance an adaptive immune response to the more aggressive B16F10 model in vitro was investigated. Therefore, irradiated B16F1 and B16F10 cells were co-cultured with luciferase expressing splenocytes from B6 mice. Cells were placed in 96-well plates pre-coated with anti-CD3 antibody and low-dose recombinant murine IL-2 for 3 days and assessed proliferation by BLI.

[4] = test system: B16F10 cells; assay: B16F10 melanoma model in B6 Albino mice, VIPhyb and/or anti-PD-1 antibody; type: in vivo, mouse; settings: VIPhyb 10 μg s.c. daily for 10 days, PD-1 antibody 200 μg i.p. every 3 days, three doses, versus untreated
Protocol: Tumor volumes were calculated as […].
B16F10 cells were injected into B6 Albino mice. VIPhyb (10 μg) was administered subcutaneously every day for 10 days. Three doses of 200 μg of an PD-1 antibody was intraperitoneally administered every 3 days. A combination both VIPhyb and the PD-1 antibody were also administered.

[5] = test system: KPC luc pancreatic cancer cells; assay: MTT assay of viable KPC luc cells after VIPhyb; type: cell-based, murine; settings: 0, 0.5, 1, 3 and 5 uM VIPhyb, 24 hours
Protocol: KPC luc pancreatic cancer cells were cultured in a 96 well plate for 24 hours with different concentrations of VIPhyb (0, 0.5, 1, 3 and 5 uM). Number of viable cells after 24 hours were quantified via MTT assay.

[6] = test system: melanoma; assay: direct effect of VIPhyb on melanoma cells; type: cell-based; settings: melanoma expressing VPAC2
[7] = in vitro stability of the peptide on the nanoparticle; type: physicochemical; settings: nanoparticle-conjugated peptide

Substance	in vitro T cell proliferation in response to stimulation with anti-CD3 antibodies [1]	reversal / block of the suppressive effect of exogenous VIP on T cell proliferation [1]	survival ([2]; B16F1, 10 μg VIPhyb daily)	tumor volume / tumor growth ([2]; B16F1, 10 μg VIPhyb daily, digital calipers twice weekly, versus untreated)	overall tumor burden by bioluminescent imaging ([2]; B16F1, once weekly BLI)	peripheral WBCs ([2]; peripheral blood, complete blood count)	tumor burden between the two routes of administration ([2]; peritumorally versus subcutaneously on the contralateral flank)	B cells ([2]; spleen upon euthanasia)	NK cells ([2]; spleen upon euthanasia)	dendritic cell subtypes ([2]; spleen upon euthanasia)	CD4+ T cells ([2]; spleen upon euthanasia, flow cytometry)	CD8+ T cells ([2]; spleen upon euthanasia, flow cytometry, versus PBS/saline-treated controls)	frequency of IFNγ, TNF, Granzyme B, and IL-2-producing cells in the CD4+ and CD8+ compartments ([2]; spleen, intracellular cytokine staining, versus PBS treated controls)	frequency of CD4+ and CD8+ T cells expressing PD-1, CTLA-4, and Lag-3 ([2]; spleen, versus PBS treated controls)	splenocyte / T cell proliferation [3]	tumor volume / tumor growth [4]	number of viable cells (direct killing) [5]	direct effect on melanoma growth, invasiveness, and modulation of inhibitory surface molecules [6]	potency of the nanoparticle formulation ([1]; nanoparticle formulation versus free peptide)	stabilization of the peptide in vitro [7]
KPRRPYTDNYTRLRKQMAVKKYLNSILN [VIPhyb, hybrid peptide of neurotensin (6-11) and VIP (7-28); antagonist of VIP signalling]	dose-dependent enhancement	reversal of the suppressive effect of exogenous VIP peptide; also recorded: reversed exogenous VIP mediated splenic T cell suppression	no significant difference	no significant change; also recorded: did not have a significant effect; also recorded: does not affect tumor size	no tumor reduction	nonsignificant modest increase	no difference in tumor burden	nonsignificant increase	nonsignificant increase	nonsignificant increase	nonsignificant modest increase	significantly more; also recorded: Increased CD8+ T cell Proliferation; also recorded: more effector CD8+ T cells; also recorded: bolsters CD8+ proliferation	no significant difference	no significant difference	not enough to promote expansion of splenocytes; also recorded: lack of splenocyte proliferation	lower average tumor volume	does not directly kill	absence of a direct effect		
VIPhyb-NP: VIPhyb with C-terminal GGGGSC linker (SEQ ID NO: 3) conjugated to a 30 nm Pluronic-stabilized polypropylene sulfide nanoparticle (KPRRPYTDNYTRLRKQMAVKKYLNSILNGGGGSC; also: conjugated to 30 nm Pluronic-stabilized polypropylene sulfide nanoparticle)	conserved	able to block the effects of exogenous VIP at higher concentrations																	increased potency	stabilize the peptide in vitro

Reference: US11471506B2, “VIP antagonists and uses in treating cancer” (Emory University, priority 2018, dated 2022)
